From patent US7998995B2 (Exelixis Patent Company LLC, priority 2006, dated 2011)

Assays:
[1] = target: T1, FXR (Homo sapiens, UniProt Q96RI1); assay: Measured EC50 or IC50 for FXR (assay not given); details: IC50 or EC50 class; assay not specified
T1 sequence (Q96RI1 1-472 isoform Q96RI1-2): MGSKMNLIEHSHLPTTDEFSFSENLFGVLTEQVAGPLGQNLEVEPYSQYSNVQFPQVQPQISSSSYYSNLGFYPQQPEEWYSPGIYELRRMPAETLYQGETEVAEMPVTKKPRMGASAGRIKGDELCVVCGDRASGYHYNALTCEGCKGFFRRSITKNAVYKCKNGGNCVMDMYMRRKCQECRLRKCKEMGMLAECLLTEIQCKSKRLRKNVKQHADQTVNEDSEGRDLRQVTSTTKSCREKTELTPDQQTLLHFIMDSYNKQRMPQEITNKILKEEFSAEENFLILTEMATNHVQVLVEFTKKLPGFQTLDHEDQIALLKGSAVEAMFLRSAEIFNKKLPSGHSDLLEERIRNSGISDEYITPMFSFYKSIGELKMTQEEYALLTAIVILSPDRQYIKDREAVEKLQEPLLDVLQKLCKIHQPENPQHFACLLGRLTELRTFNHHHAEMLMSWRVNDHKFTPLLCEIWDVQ
Description: (§1) Measured EC50 or IC50 for LXR, and FXR for Compounds of the Invention
(§2) LXR and FXR activities for various compounds of the invention are presented in the following table; those compounds with EC50 or IC50 values <10 μM for at least one of LXRα, LXRβ or FXR are considered to be active. In the following Table, IC50 or EC50 data is represented as follows: A<1 μM, B=1-10 μm, and C>10 μM.

[2] = test system: T2, LXR; assay: Measured EC50 or IC50 for LXR (LXRα and/or LXRβ; assay and subtype not given); details: IC50 or EC50 class, subtype not specified
T2 construct: fused on or other part: GST fused to the LBD in the FRET assay
Description: as §1, §2

Row | SMILES | EC50 [1] [nM] | EC50 [2] [nM]
1 | CC(C)(O)c1cc(-c2c(F)cccc2Cl)n(-c2ccc(-c3cccc(S(C)(=O)=O)c3)cc2)n1 [Example 962, 2-{5-(2-chloro-6-fluorophenyl)-1-[3′-(methylsulfonyl)biphenyl-4-yl]-1H-pyrazol-3-yl}propan-2-ol] | 1000 to 10000 | < 1000
2 | CC(C)(O)c1cc(-c2c(Cl)cccc2Cl)n(-c2ccc(-c3cccc(S(C)(=O)=O)c3)cc2)n1 [Example 963, 2-{5-(2,6-dichlorophenyl)-1-[3′-(methylsulfonyl)biphenyl-4-yl]-1H-pyrazol-3-yl}propan-2-ol] | 1000 to 10000 | < 1000
3 | CC(C)(O)c1nn(-c2ccc(-c3cccc(S(C)(=O)=O)c3)cc2F)c(-c2c(F)cccc2Cl)c1Cl [Example 964, 2-{4-chloro-5-(2-chloro-6-fluorophenyl)-1-[3-fluoro-3′-(methysulfonyl)biphenyl-4-yl]-1H-pyrazol-3-yl}propan-2-ol] | 1000 to 10000 | < 1000
4 | CC(C)(O)c1cc(-c2c(Cl)cccc2Cl)n(-c2ccc(-c3cccc(S(C)(=O)=O)c3)cc2Cl)n1 [Example 965, 2-{1-[3-chloro-3′-(methylsulfonyl)biphenyl-4-yl]-5-(2,6-dichlorophenyl)-1H-pyrazol-3-yl}propan-2-ol] | 1000 to 10000 | < 1000
5 | Cc1cc(-c2cccc(S(C)(=O)=O)c2)ccc1-n1nc(C(C)(C)O)cc1-c1c(Cl)cccc1Cl [Example 966, 2-{5-(2,6-dichlorophenyl)-1-[3-methyl-3′-(methylsulfonyl)biphenyl-4-yl]-1H-pyrazol-3-yl}propan-2-ol] | 1000 to 10000 | < 1000
6 | Cc1cc(-c2cccc(S(C)(=O)=O)c2)ccc1-n1nc(C(C)(C)O)c(Cl)c1-c1c(Cl)cccc1Cl [Example 967, 2-{4-chloro-5-(2,6-dichlorophenyl)-1-[3-methyl-3′-(methylsulfonyl)biphenyl-4-yl]-1H-pyrazol-3-yl}propan-2-ol] | 1000 to 10000 | < 1000
7 | Cc1cc(-c2cccc(S(C)(=O)=O)c2)ccc1-n1nc(C(C)(C)O)c(Cl)c1-c1c(F)cccc1Cl [Example 968, 2-{4-chloro-5-(2-chloro-6-fluorophenyl)-1-[3-methyl-3′-(methylsulfonyl)biphenyl-4-yl]-1H-pyrazol-3-yl}propan-2-ol] | > 10000 | < 1000
8 | Cc1cc(-n2nc(C(C)(C)O)cc2-c2c(F)cccc2Cl)ccc1-c1cccc(S(C)(=O)=O)c1 [Example 969, 2-{5-(2-chloro-6-fluorophenyl)-1-[2-methyl-3′-(methylsulfonyl)biphenyl-4-yl]-1H-pyrazol-3-yl}propan-2-ol] | 1000 to 10000 | 1000 to 10000
9 | Cc1cc(-n2nc(C(C)(C)O)cc2-c2c(Cl)cccc2Cl)ccc1-c1cccc(S(C)(=O)=O)c1 [Example 970, 2-{5-(2,6-dichlorophenyl)-1-[2-methyl-3′-(methylsulfonyl)biphenyl-4-yl]-1H-pyrazol-3-yl}propan-2-ol] | 1000 to 10000 | 1000 to 10000
10 | Cc1cc(-n2nc(C(C)(C)O)c(Cl)c2-c2c(F)cccc2Cl)ccc1-c1cccc(S(C)(=O)=O)c1 [Example 971, 2-{4-chloro-4-(2-chloro-6-fluoropehnyl)-1-[2-methyl-3′-(methylsulfonyl)biphenyl-4-yl]-1H-pyrazol-3-yl}propan-2-ol] | 1000 to 10000 | < 1000
11 | Cc1cc(-n2nc(C(C)(C)O)c(Cl)c2-c2c(Cl)cccc2Cl)ccc1-c1cccc(S(C)(=O)=O)c1 [Example 972, 2-{4-chloro-5-(2,6-dichlorophenyl)-1-[2-methyl-3′-(methylsulfonyl)biphenyl-4-yl]-1H-pyrazol-3-yl}propan-2-ol] | 1000 to 10000 | 1000 to 10000
